The source of these data is EP1242012B1, “IMPROVED TRANSDERMAL CONTRACEPTIVE DELIVERY SYSTEM AND PROCESS” (priority 1999, dated 2001).

The conditions of data set [1]: human, in vivo, topical or ocular. The text has this:
The total duration of study for each subject participating in this study is 5 months. It consists of one base-line period followed by three treatment periods and one recovery period. Each period is one menstrual cycle of the person subjects.
Subjects attending this 5 month-long study were randomly divided and sequentially admitted into three study groups. Group A, B and C subjects received one piece of 7.5 cm^2, 10.0 cm^2 and 12.5 cm^2 TCDS patch weekly, respectively, for three consecutive weeks I each of the three treatment periods. During the baseline and recovery periods, all the subjects received only the placebo patch of the corresponding size for three consecutive weeks. During the fourth week of each study period, no patch was worn by the subjects in any treatment groups.
According to the blood sampling schedule, a total of 57 blood samples (about 10 ml per sample) were taken from each subject during the 5-month study. During the three treatment cycles, 15 samples were taken through out the 21 days of patch wearing period. At the end of the third treatment cycle, 5 additional blood samples were taken during the 24 hours post patch removal which allows the elimination pharmacokinetics of drugs to be studied. […]
Serum level of levonorgestrel (LNG), ethinyl estradiol (EE) as well as luteinizing hormone (LH), progesterone (P) and estradiol (E2) were analyzed by radio-immunassay methods.

For data set [2] the following is noted: human, in vivo, topical or ocular; cited from earlier work.

Regarding `C#C[C@]1(O)CC[C@H]2[C@@H]3CCc4cc(O)ccc4[C@H]3CC[C@@]21C` [ethinyl estradiol], in data set [1], the “levels achieved by the TCDS formulation of the present invention” value fell in the range of 0.035 to 0.075 ng/mL.
On to `C#C[C@]1(O)CC[C@H]2[C@@H]3CCC4=CC(=O)CC[C@@H]4[C@H]3CC[C@@]21CC` [levonorgestrel], for which, in data set [2], the “levels achieved by the system described in the '956 patent” value is 0.4 ng/mL.
